Test system: MV-4-11 cells
Experiment: Gene expression microarray analysis (Affymetrix PrimeView) and GSEA
Type: cell-based, human
Set-up: RFU PODN (11730768_x_at) / Fold change /veh PODN (11730768_x_at) / RFU LINC00158 (11744669_a_at) / Fold change /veh LINC00158 (11744669_a_at) / RFU DUSP10 (11751237_a_at) / Fold change /veh DUSP10 (11751237_a_at) / RFU ID3 (11757404_x_at) / Fold change /veh ID3 (11757404_x_at) / RFU PLEKHG5 (11737974_s_at) / Fold change /veh PLEKHG5 (11737974_s_at) / RFU LRRC4B (11730491_at) / Fold change /veh LRRC4B (11730491_at) / RFU GIMAP4 (11747438_a_at) / Fold change /veh GIMAP4 (11747438_a_at) / RFU KRT8 (11758183_x_at) / Fold change /veh KRT8 (11758183_x_at) / RFU CNN1 (11734310_a_at) / Fold change /veh CNN1 (11734310_a_at) / RFU VPS37D (11726825_at) / Fold change /veh VPS37D (11726825_at) / RFU C10orf10 (11716522_x_at) / Fold change /veh C10orf10 (11716522_x_at) / RFU KIR2DL2 /// KIR2DL4 /// KIR2DL5A /// KIR2DL5B /// KIR2DS1 /// KIR2DS2 /// KIR2DS3 /// KIR2DS4 /// KIR3DL3 /// KIR3DL3 /// KIR3DS1 (11738374_at) / Fold change /veh KIR2DL2 /// KIR2DL4 /// KIR2DL5A /// KIR2DL5B /// KIR2DS1 /// KIR2DS2 /// KIR2DS3 /// KIR2DS4 /// KIR3DL3 /// KIR3DL3 /// KIR3DS1 (11738374_at) / RFU C1QL1 (11718748_at) / Fold change /veh C1QL1 (11718748_at) / RFU TMPRSS4 (11747572_a_at) / Fold change /veh TMPRSS4 (11747572_a_at) / RFU HAMP (11756126_x_at) / Fold change /veh HAMP (11756126_x_at) / RFU RNFT2 (11725882_a_at) / Fold change /veh RNFT2 (11725882_a_at) / RFU NR4A2 (11747474_a_at) / Fold change /veh NR4A2 (11747474_a_at) / RFU ABCC12 (11746883_a_at) / Fold change /veh ABCC12 (11746883_a_at) / RFU TMEM136 (11760407_x_at) / Fold change /veh TMEM136 (11760407_x_at) / RFU CLDN22 /// WWC2 (11732394_at) / Fold change /veh CLDN22 /// WWC2 (11732394_at) / RFU HLA-DPB1 (11760878_x_at) / Fold change /veh HLA-DPB1 (11760878_x_at) / RFU SPINT1 (11716480_a_at) / Fold change /veh SPINT1 (11716480_a_at) / RFU GAP43 (11754022_s_at) / Fold change /veh GAP43 (11754022_s_at) / RFU A4GNT (11735810_at) / Fold change /veh A4GNT (11735810_at) / RFU PRB3 (11715151_x_at) / Fold change /veh PRB3 (11715151_x_at) / RFU TUBB4B (11761932_at) / Fold change /veh TUBB4B (11761932_at) / RFU CAPN14 (11732068_a_at) / Fold change /veh CAPN14 (11732068_a_at) / RFU TMCC2 (11721928_a_at) / Fold change /veh TMCC2 (11721928_a_at) / RFU IRGQ (11745062_a_at) / Fold change /veh IRGQ (11745062_a_at) / RFU FAM174B (11720279_a_at) / Fold change /veh FAM174B (11720279_a_at) / RFU TMPRSS4 (11748680_a_at) / Fold change /veh TMPRSS4 (11748680_a_at) / RFU FAM212B (11763350_a_at) / Fold change /veh FAM212B (11763350_a_at) / RFU PLEKHG5 (11743358_a_at) / Fold change /veh PLEKHG5 (11743358_a_at) / RFU ZSCAN30 (11745921_a_at) / Fold change /veh ZSCAN30 (11745921_a_at) / RFU CMKLR1 (11741424_a_at) / Fold change /veh CMKLR1 (11741424_a_at) / RFU LOC101060620 /// MAPK8IP1 (11723275_at) / Fold change /veh LOC101060620 /// MAPK8IP1 (11723275_at) / RFU SPTSSB (11747773_x_at) / Fold change /veh SPTSSB (11747773_x_at) / RFU PRSS12 (11739890_at) / Fold change /veh PRSS12 (11739890_at) / RFU BIN1 (11741810_x_at) / Fold change /veh BIN1 (11741810_x_at) / RFU WNT11 (11732464_a_at) / Fold change /veh WNT11 (11732464_a_at) / RFU C10orf10 (11716521_a_at) / Fold change /veh C10orf10 (11716521_a_at) / RFU C5orf56 (11738089_at) / Fold change /veh C5orf56 (11738089_at) / RFU CYB561 (11721691_x_at) / Fold change /veh CYB561 (11721691_x_at) / RFU ANKRD19P (11752326_a_at) / Fold change /veh ANKRD19P (11752326_a_at) / RFU OR2T12 /// OR2T33 /// OR2T8 (11738714_s_at) / Fold change /veh OR2T12 /// OR2T33 /// OR2T8 (11738714_s_at) / RFU VCAN (11748164_a_at) / Fold change /veh VCAN (11748164_a_at) / RFU JSRP1 (11732532_at) / Fold change /veh JSRP1 (11732532_at) / RFU KRTAP10-11 (11738290_x_at) / Fold change /veh KRTAP10-11 (11738290_x_at) / RFU MYO3A (11730013_a_at) / Fold change /veh MYO3A (11730013_a_at) / RFU EBF3 (11725865_a_at) / Fold change /veh EBF3 (11725865_a_at) / RFU CAMK2N1 (11719241_x_at) / Fold change /veh CAMK2N1 (11719241_x_at) / RFU C5orf56 (11738088_a_at) / Fold change /veh C5orf56 (11738088_a_at) / RFU OLFML3 (11715873_a_at) / Fold change /veh OLFML3 (11715873_a_at) / RFU LOC100653217 /// NTM (11731650_a_at) / Fold change /veh LOC100653217 /// NTM (11731650_a_at) / RFU MAPK11 (11762145_a_at) / Fold change /veh MAPK11 (11762145_a_at) / RFU FIZ1 (11724087_x_at) / Fold change /veh FIZ1 (11724087_x_at) / RFU OASL (11726364_x_at) / Fold change /veh OASL (11726364_x_at) / RFU SOX15 (11748057_x_at) / Fold change /veh SOX15 (11748057_x_at) / RFU CD79A (11719716_a_at) / Fold change /veh CD79A (11719716_a_at) / RFU HIST1H1D (11736915_at) / Fold change /veh HIST1H1D (11736915_at) / RFU CASKIN2 (11723855_a_at) / Fold change /veh CASKIN2 (11723855_a_at) / RFU LOC730098 (11760151_x_at) / Fold change /veh LOC730098 (11760151_x_at) / RFU OR4N2 (11742367_at) / Fold change /veh OR4N2 (11742367_at) / RFU PRRT2 (11749266_a_at) / Fold change /veh PRRT2 (11749266_a_at) / RFU SNX32 (11753110_a_at) / Fold change /veh SNX32 (11753110_a_at) / RFU CDHR5 (11726645_a_at) / Fold change /veh CDHR5 (11726645_a_at) / RFU RCAN1 (11760418_a_at) / Fold change /veh RCAN1 (11760418_a_at) / RFU FAM167A (11723789_a_at) / Fold change /veh FAM167A (11723789_a_at) / RFU FAM26E (11764081_at) / Fold change /veh FAM26E (11764081_at) / RFU ISYNA1 (11749810_s_at) / Fold change /veh ISYNA1 (11749810_s_at) / RFU ACY1 (11761880_at) / Fold change /veh ACY1 (11761880_at) / RFU 11764098_at / Fold change /veh 11764098_at / RFU SAMD14 (11745864_x_at) / Fold change /veh SAMD14 (11745864_x_at) / RFU NPB (11741838_a_at) / Fold change /veh NPB (11741838_a_at) / RFU TMPRSS6 (11731388_a_at) / Fold change /veh TMPRSS6 (11731388_a_at) / RFU KRTAP10-2 (11738614_at) / Fold change /veh KRTAP10-2 (11738614_at) / RFU ARHGAP8 /// PRR5-ARHGAP8 (11727945_x_at) / Fold change /veh ARHGAP8 /// PRR5-ARHGAP8 (11727945_x_at) / RFU KRTAP5-7 /// NADSYN1 (11734609_at) / Fold change /veh KRTAP5-7 /// NADSYN1 (11734609_at) / RFU RASL12 (11751679_a_at) / Fold change /veh RASL12 (11751679_a_at) / RFU CDKN2B (11736163_a_at) / Fold change /veh CDKN2B (11736163_a_at) / RFU PRF1 (11729649_at) / Fold change /veh PRF1 (11729649_at) / RFU, ZNF638 /// ZNF638-IT1 / Fold change vs veh, ZNF638 /// ZNF638-IT1 / RFU, PANK3 / Fold change vs veh, PANK3 / RFU, SH3YL1 / Fold change vs veh, SH3YL1 / RFU, ZEB2 / Fold change vs veh, ZEB2 / RFU, NRIP1 / Fold change vs veh, NRIP1 / RFU, PTTG1IP / Fold change vs veh, PTTG1IP / RFU, CAPN2 / Fold change vs veh, CAPN2 / RFU, MED14 / Fold change vs veh, MED14 / RFU, SNORA58 / Fold change vs veh, SNORA58 / RFU, C1orf63 / Fold change vs veh, C1orf63 / RFU, LRRFIP1 / Fold change vs veh, LRRFIP1 / RFU, NDUFAF7 / Fold change vs veh, NDUFAF7 / RFU, SLC12A2 / Fold change vs veh, SLC12A2 / RFU, IBTK / Fold change vs veh, IBTK / RFU, ESF1 / Fold change vs veh, ESF1 / Fold change vs veh, TMEM50B / RFU, TAOK1 / Fold change vs veh, TAOK1 / RFU, ACBD3 / Fold change vs veh, ACBD3 / RFU, TMA16 / Fold change vs veh, TMA16 / RFU, RWDD3 / Fold change vs veh, RWDD3 / RFU, BCAT1 / Fold change vs veh, BCAT1 / RFU, EDEM3 / Fold change vs veh, EDEM3 / RFU, TMEM33 / Fold change vs veh, TMEM33 / RFU, WDR75 / Fold change vs veh, WDR75 / RFU, AHCTF1 / Fold change vs veh, AHCTF1 / RFU, TFRC / Fold change vs veh, TFRC / RFU, ZDHHC17 / Fold change vs veh, ZDHHC17 / RFU, NOM1 / Fold change vs veh, NOM1 / RFU, ARL8B / Fold change vs veh, ARL8B / RFU, ZBTB11 / Fold change vs veh, ZBTB11 / RFU, TAMM41 / Fold change vs veh, TAMM41 / RFU, KIAA1704 /// LOC100996395 / Fold change vs veh, KIAA1704 /// LOC100996395 / RFU, ING1 / Fold change vs veh, ING1 / RFU, TRMT61B / Fold change vs veh, TRMT61B / RFU, FUBP3 / Fold change vs veh, FUBP3 / RFU, TP53 / Fold change vs veh, TP53 / RFU, TNKS2 / Fold change vs veh, TNKS2 / RFU, ZFP14 / Fold change vs veh, ZFP14 / RFU, ACTR2 / Fold change vs veh, ACTR2 / RFU, PPP3R1 / Fold change vs veh, PPP3R1 / RFU, PIK3R1 / Fold change vs veh, PIK3R1 / RFU, HNRNPA1 / Fold change vs veh, HNRNPA1 / RFU, RNF170 / Fold change vs veh, RNF170 / RFU, ZNF28 / Fold change vs veh, ZNF28 / RFU, RNGTT / Fold change vs veh, RNGTT / RFU, OGT / Fold change vs veh, OGT / RFU, BRD1 / Fold change vs veh, BRD1 / RFU, MARS / Fold change vs veh, MARS / RFU, ZNF655 / Fold change vs veh, ZNF655 / RFU, FAHD1 / Fold change vs veh, FAHD1 / RFU, BDP1 / Fold change vs veh, BDP1 / RFU, LRRCC1 / Fold change vs veh, LRRCC1 / RFU, ARID1A / Fold change vs veh, ARID1A / RFU, ZNF146 / Fold change vs veh, ZNF146 / RFU, ZNF330 / Fold change vs veh, ZNF330 / RFU, GPN3 / Fold change vs veh, GPN3 / RFU, C9orf123 / Fold change vs veh, C9orf123 / RFU, N4BP2L2 / Fold change vs veh, N4BP2L2 / RFU, ARFIP1 / Fold change vs veh, ARFIP1 / RFU, FAM179B / Fold change vs veh, FAM179B / RFU, BCL10 / Fold change vs veh, BCL10 / RFU, UHRF1BP1L / Fold change vs veh, UHRF1BP1L / RFU, BET1 / Fold change vs veh, BET1 / RFU, CNOT2 / Fold change vs veh, CNOT2 / RFU, ZNF268 / Fold change vs veh, ZNF268 / Fold change vs veh, ZNF507 / RFU, DGCR2 / Fold change vs veh, DGCR2 / RFU, WDSUB1 / Fold change vs veh, WDSUB1 / Fold change vs veh, HSP90B1 /// MIR3652 / RFU, ADSS / Fold change vs veh, ADSS / RFU, GK / Fold change vs veh, GK / RFU, ZNF148 / Fold change vs veh, ZNF148 / RFU, TAF9 / Fold change vs veh, TAF9 / RFU, SLC1A5 / Fold change vs veh, SLC1A5 / RFU, SLMO2 / Fold change vs veh, SLMO2 / RFU, ABCC4 / Fold change vs veh, ABCC4 / RFU, LOC101060439 /// RAP1B / Fold change vs veh, LOC101060439 /// RAP1B / RFU, RFX7 / Fold change vs veh, RFX7 / RFU, GTPBP10 / Fold change vs veh, GTPBP10 / RFU, CNEP1R1 / Fold change vs veh, CNEP1R1 / RFU, BIVM-ERCC5 /// ERCC5 / Fold change vs veh, BIVM-ERCC5 /// ERCC5 / RFU, ILF3 / Fold change vs veh, ILF3 / RFU 11762660_at / Fold change /veh 11762660_at / RFU VCAN (11757783_s_at) / Fold change /veh VCAN (11757783_s_at) / RFU DDX43 (11728927_at) / Fold change /veh DDX43 (11728927_at) / RFU KRT8 (11758188_x_at) / Fold change /veh KRT8 (11758188_x_at) / RFU NKD1 (11759106_at) / Fold change /veh NKD1 (11759106_at) / RFU SRD5A1 (11742802_a_at) / Fold change /veh SRD5A1 (11742802_a_at) / RFU TPSAB1 /// TPSB2 (11721975_s_at) / Fold change /veh TPSAB1 /// TPSB2 (11721975_s_at) / RFU GSTM3 (11746129_a_at) / Fold change /veh GSTM3 (11746129_a_at) / RFU IL23R (11737362_x_at) / Fold change /veh IL23R (11737362_x_at) / RFU TMEM51 (11727254_a_at) / Fold change /veh TMEM51 (11727254_a_at) / RFU PIWIL2 (11732686_x_at) / Fold change /veh PIWIL2 (11732686_x_at) / RFU ORM1 (11744905_x_at) / Fold change /veh ORM1 (11744905_x_at) / RFU CCDC152 (11743942_at) / Fold change /veh CCDC152 (11743942_at) / RFU ECM1 (11717891_a_at) / Fold change /veh ECM1 (11717891_a_at) / RFU IL23R (11748794_a_at) / Fold change /veh IL23R (11748794_a_at) / RFU TNFAIP8L3 (11732012_x_at) / Fold change /veh TNFAIP8L3 (11732012_x_at) / RFU MBOAT4 (11741988_at) / Fold change /veh MBOAT4 (11741988_at) / RFU 11764193_at / Fold change /veh 11764193_at / RFU TMEM53 (11763286_at) / Fold change /veh TMEM53 (11763286_at) / RFU MAGEB2 (11727129_at) / Fold change /veh MAGEB2 (11727129_at) / RFU TMEM200A (11744735_a_at) / Fold change /veh TMEM200A (11744735_a_at) / RFU CCDC152 (11751479_a_at) / Fold change /veh CCDC152 (11751479_a_at) / RFU FAM211A (11726209_a_at) / Fold change /veh FAM211A (11726209_a_at) / RFU RGS16 (11746705_a_at) / Fold change /veh RGS16 (11746705_a_at) / RFU VCAN (11755009_s_at) / Fold change /veh VCAN (11755009_s_at) / RFU RHOB (11743442_s_at) / Fold change /veh RHOB (11743442_s_at) / RFU RGS16 (11720943_a_at) / Fold change /veh RGS16 (11720943_a_at) / RFU RGS16 (11720944_at) / Fold change /veh RGS16 (11720944_at) / RFU, VPS4B / Fold change vs veh, VPS4B / RFU, CREB1 / Fold change vs veh, CREB1 / RFU, DNAJC13 / Fold change vs veh, DNAJC13 / RFU, GNAQ / Fold change vs veh, GNAQ / RFU, CDK5R1 / Fold change vs veh, CDK5R1 / RFU, ZRANB3 / Fold change vs veh, ZRANB3 / RFU, CUL4A / Fold change vs veh, CUL4A / RFU, CCNY / Fold change vs veh, CCNY / RFU, UFL1 / Fold change vs veh, UFL1 / RFU, COG3 / Fold change vs veh, COG3 / RFU, DIAPH2 / Fold change vs veh, DIAPH2 / RFU, SKA2 / Fold change vs veh, SKA2 / RFU, AFF3 / Fold change vs veh, AFF3 / RFU, LMF1 / Fold change vs veh, LMF1 / RFU, IPO11 / Fold change vs veh, IPO11 / RFU, DFFB / Fold change vs veh, DFFB / RFU, FOXP1 / Fold change vs veh, FOXP1 / RFU, CARD8 / Fold change vs veh, CARD8 / RFU, STRN3 / Fold change vs veh, STRN3 / RFU, ADK / Fold change vs veh, ADK / RFU, RASSF2 / Fold change vs veh, RASSF2 / RFU, WIPF1 / Fold change vs veh, WIPF1 / RFU, LARP1B / Fold change vs veh, LARP1B / RFU, RASA1 / Fold change vs veh, RASA1 / RFU, RB1 / Fold change vs veh, RB1 / RFU, PPFIA1 / Fold change vs veh, PPFIA1 / RFU, MAT2A / Fold change vs veh, MAT2A / RFU, CCT5 / Fold change vs veh, CCT5 / RFU, WDR92 / Fold change vs veh, WDR92 / RFU, CUX1 / Fold change vs veh, CUX1 / RFU, TTC7A / Fold change vs veh, TTC7A / RFU, TMEM135 / Fold change vs veh, TMEM135 / RFU, DEPTOR / Fold change vs veh, DEPTOR / RFU, CPM / Fold change vs veh, CPM / RFU, DNAJB6 / Fold change vs veh, DNAJB6 / RFU, CACNA2D3 / Fold change vs veh, CACNA2D3 / RFU, DTX4 / Fold change vs veh, DTX4 / RFU, TFCP2 / Fold change vs veh, TFCP2 / RFU, GMCL1 /// GMCL1P1 / Fold change vs veh, GMCL1 /// GMCL1P1 / RFU, AEBP2 / Fold change vs veh, AEBP2 / RFU, SNHG1 /// SNORD22 /// SNORD25 /// SNORD26 /// SNORD27 /// SNORD28 /// SNORD29 /// SNORD31 / Fold change vs veh, SNHG1 /// SNORD22 /// SNORD25 /// SNORD26 /// SNORD27 /// SNORD28 /// SNORD29 /// SNORD31 / Fold change (Aza/veh), C12orf56 (ProbeSet 11735607_a_at) / Fold change (ACY-1035/veh), C12orf56 (ProbeSet 11735607_a_at) / Fold change (Aza/veh), FGFR1OP (ProbeSet 11751329_s_at) / Fold change (ACY-1035/veh), FGFR1OP (ProbeSet 11751329_s_at) / Fold change (Aza/veh), VPS36 (ProbeSet 11739960_a_at) / Fold change (ACY-1035/veh), VPS36 (ProbeSet 11739960_a_at) / RFU SYPL1 (11715823_x_at) / Fold change /veh SYPL1 (11715823_x_at) / RFU IGFBP7 (11715501_s_at) / Fold change /veh IGFBP7 (11715501_s_at) / RFU REEP3 (11722064_at) / Fold change /veh REEP3 (11722064_at) / RFU IGLL1 (11728026_x_at) / Fold change /veh IGLL1 (11728026_x_at): dose or concentration left out as unconfirmed
Details: ProbeSet 11757113_a_at; LIST D

Nc1ccc(-c2cccs2)cc1NC(=O)c1ccc2c(c1)cc(C1CC1)n2CCN1CCOCC1 [ACY-1035]
RFU, SNHG1 /// SNORD22 /// SNORD25 /// SNORD26 /// SNORD27 /// SNORD28 /// SNORD29 /// SNORD31: 319.01 RFU
